Data published in PubChem BioAssay (NCI).
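Cells were grown in 96-well plates and exposed to each compound for 48 hours at five concentrations; endpoints were interpolated linearly between bracketing concentrations, or set to the highest concentration if not reached. TGI: concentration producing complete growth inhibition.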

Key:
Assay in all cases: growth of human tumour cells (NCI), 48 h
HT29 colon = tested on: HT29 colon
HOP-62 NSCLC = tested on: HOP-62 NSCLC
NCI-H23 lung = tested on: NCI-H23 lung
NCI-H226 lung = tested on: NCI-H226 lung
HCT-15 colon = tested on: HCT-15 colon
DLD-1 colon = tested on: DLD-1 colon
OVCAR-4 ovarian = tested on: OVCAR-4 ovarian
DMS 273 small cell lung = tested on: DMS 273 small cell lung
MOLT-4 leukemia = tested on: MOLT-4 leukemia
IGROV1 ovarian = tested on: IGROV1 ovarian
HCC-2998 colon = tested on: HCC-2998 colon
SF-268 CNS = tested on: SF-268 CNS
U251 CNS = tested on: U251 CNS
SK-OV-3 ovarian = tested on: SK-OV-3 ovarian
LXFL 529 NSCLC = tested on: LXFL 529 NSCLC
OVCAR-5 ovarian = tested on: OVCAR-5 ovarian
MALME-3M melanoma = tested on: MALME-3M melanoma
SNB-19 CNS = tested on: SNB-19 CNS
UACC-257 melanoma = tested on: UACC-257 melanoma
DMS 114 small cell lung = tested on: DMS 114 small cell lung
OVCAR-3 ovarian = tested on: OVCAR-3 ovarian
HOP-92 NSCLC = tested on: HOP-92 NSCLC
HOP-18 NSCLC = tested on: HOP-18 NSCLC
KM20L2 colon = tested on: KM20L2 colon
SN12C renal = tested on: SN12C renal
HCT-116 colon = tested on: HCT-116 colon
LOX IMVI melanoma = tested on: LOX IMVI melanoma
UACC-62 melanoma = tested on: UACC-62 melanoma
COLO 205 colon = tested on: COLO 205 colon
786-0 renal = tested on: 786-0 renal
A549 NSCLC = tested on: A549 NSCLC
SK-MEL-5 melanoma = tested on: SK-MEL-5 melanoma
CCRF-CEM leukemia = tested on: CCRF-CEM leukemia
CAKI-1 renal = tested on: CAKI-1 renal
RPMI-8226 leukemia = tested on: RPMI-8226 leukemia
UO-31 renal = tested on: UO-31 renal
M19-MEL melanoma = tested on: M19-MEL melanoma
HL-60(TB) leukemia = tested on: HL-60(TB) leukemia
OVCAR-8 ovarian = tested on: OVCAR-8 ovarian
M14 melanoma = tested on: M14 melanoma
ACHN renal = tested on: ACHN renal
SW-620 colon = tested on: SW-620 colon
TK-10 renal = tested on: TK-10 renal
A498 renal = tested on: A498 renal
K-562 leukemia = tested on: K-562 leukemia
NCI-H460 lung = tested on: NCI-H460 lung
SR leukemia = tested on: SR leukemia
SF-295 CNS = tested on: SF-295 CNS
SK-MEL-28 melanoma = tested on: SK-MEL-28 melanoma
RXF 393 renal = tested on: RXF 393 renal
EKVX NSCLC = tested on: EKVX NSCLC
SNB-75 CNS = tested on: SNB-75 CNS
SNB-78 CNS = tested on: SNB-78 CNS
KM12 colon = tested on: KM12 colon
SK-MEL-2 melanoma = tested on: SK-MEL-2 melanoma
NCI-H522 lung = tested on: NCI-H522 lung
SF-539 CNS = tested on: SF-539 CNS

## Cc1ccc(S(=O)(=O)OCC23CCC(C2)C2CC23)cc1 (stereo unspecified)
HT29 colon
  TGI: > 100 µM
HOP-62 NSCLC
  TGI: > 100 µM
NCI-H23 lung
  TGI: > 100 µM
NCI-H226 lung
  TGI: > 100 µM
HCT-15 colon
  TGI: > 100 µM
DLD-1 colon
  TGI: > 100 µM
OVCAR-4 ovarian
  TGI: > 100 µM
DMS 273 small cell lung
  TGI: > 100 µM
MOLT-4 leukemia
  TGI: > 100 µM
IGROV1 ovarian
  TGI: > 100 µM
HCC-2998 colon
  TGI: > 100 µM
SF-268 CNS
  TGI: > 100 µM
U251 CNS
  TGI: > 100 µM
SK-OV-3 ovarian
  TGI: > 100 µM
LXFL 529 NSCLC
  TGI: > 100 µM
OVCAR-5 ovarian
  TGI: > 100 µM
MALME-3M melanoma
  TGI: > 100 µM
SNB-19 CNS
  TGI: > 100 µM
UACC-257 melanoma
  TGI: > 100 µM
DMS 114 small cell lung
  TGI: > 100 µM
OVCAR-3 ovarian
  TGI: > 100 µM
HOP-92 NSCLC
  TGI: 94.8 µM
HOP-18 NSCLC
  TGI: > 100 µM
KM20L2 colon
  TGI: > 100 µM
SN12C renal
  TGI: > 100 µM
HCT-116 colon
  TGI: > 100 µM
LOX IMVI melanoma
  TGI: > 100 µM
UACC-62 melanoma
  TGI: > 100 µM
COLO 205 colon
  TGI: > 100 µM
786-0 renal
  TGI: > 100 µM
A549 NSCLC
  TGI: > 100 µM
SK-MEL-5 melanoma
  TGI: > 100 µM
CCRF-CEM leukemia
  TGI: > 100 µM
CAKI-1 renal
  TGI: > 100 µM
RPMI-8226 leukemia
  TGI: > 100 µM
UO-31 renal
  TGI: > 100 µM
M19-MEL melanoma
  TGI: > 100 µM
HL-60(TB) leukemia
  TGI: 98.8 µM
OVCAR-8 ovarian
  TGI: > 100 µM
M14 melanoma
  TGI: > 100 µM
ACHN renal
  TGI: > 100 µM
SW-620 colon
  TGI: > 100 µM
TK-10 renal
  TGI: > 100 µM
A498 renal
  TGI: > 100 µM
K-562 leukemia
  TGI: > 100 µM
NCI-H460 lung
  TGI: > 100 µM
SR leukemia
  TGI: > 100 µM
SF-295 CNS
  TGI: > 100 µM
SK-MEL-28 melanoma
  TGI: > 100 µM

## CCOC(=O)/C=C1/Oc2ccccc2C1(C)O (stereo unspecified)
HT29 colon
  TGI: > 100 µM
HOP-62 NSCLC
  TGI: > 100 µM
NCI-H23 lung
  TGI: > 100 µM
NCI-H226 lung
  TGI: > 100 µM
HCT-15 colon
  TGI: > 100 µM
DLD-1 colon
  TGI: > 100 µM
OVCAR-4 ovarian
  TGI: > 100 µM
DMS 273 small cell lung
  TGI: > 100 µM
RXF 393 renal
  TGI: > 100 µM
MOLT-4 leukemia
  TGI: > 100 µM
IGROV1 ovarian
  TGI: > 100 µM
HCC-2998 colon
  TGI: > 100 µM
SF-268 CNS
  TGI: > 100 µM
U251 CNS
  TGI: > 100 µM
SK-OV-3 ovarian
  TGI: > 100 µM
LXFL 529 NSCLC
  TGI: > 100 µM
OVCAR-5 ovarian
  TGI: > 100 µM
MALME-3M melanoma
  TGI: > 100 µM
SNB-19 CNS
  TGI: > 100 µM
UACC-257 melanoma
  TGI: > 100 µM
DMS 114 small cell lung
  TGI: > 100 µM
OVCAR-3 ovarian
  TGI: > 100 µM
HOP-92 NSCLC
  TGI: > 100 µM
EKVX NSCLC
  TGI: > 100 µM
HOP-18 NSCLC
  TGI: > 100 µM
KM20L2 colon
  TGI: > 100 µM
SN12C renal
  TGI: > 100 µM
HCT-116 colon
  TGI: > 100 µM
LOX IMVI melanoma
  TGI: > 100 µM
UACC-62 melanoma
  TGI: > 100 µM
COLO 205 colon
  TGI: > 100 µM
786-0 renal
  TGI: > 100 µM
A549 NSCLC
  TGI: > 100 µM
SK-MEL-5 melanoma
  TGI: > 100 µM
SNB-75 CNS
  TGI: > 100 µM
CCRF-CEM leukemia
  TGI: > 100 µM
CAKI-1 renal
  TGI: > 100 µM
RPMI-8226 leukemia
  TGI: > 100 µM
UO-31 renal
  TGI: > 100 µM
M19-MEL melanoma
  TGI: > 100 µM
SNB-78 CNS
  TGI: > 100 µM
HL-60(TB) leukemia
  TGI: > 100 µM
KM12 colon
  TGI: > 100 µM
OVCAR-8 ovarian
  TGI: > 100 µM
M14 melanoma
  TGI: > 100 µM
ACHN renal
  TGI: > 100 µM
SW-620 colon
  TGI: > 100 µM
TK-10 renal
  TGI: > 100 µM
A498 renal
  TGI: > 100 µM
K-562 leukemia
  TGI: > 100 µM
SK-MEL-2 melanoma
  TGI: > 100 µM
NCI-H460 lung
  TGI: > 100 µM
NCI-H522 lung
  TGI: > 100 µM
SF-295 CNS
  TGI: > 100 µM
SK-MEL-28 melanoma
  TGI: > 100 µM

## N#CC1(C#N)C(c2ccc(C3C(C#N)(C#N)C3(C#N)C#N)cc2)C1(C#N)C#N
HT29 colon
  TGI: > 100 µM
HOP-62 NSCLC
  TGI: > 100 µM
NCI-H23 lung
  TGI: > 100 µM
HCT-15 colon
  TGI: > 100 µM
DLD-1 colon
  TGI: > 100 µM
OVCAR-4 ovarian
  TGI: > 100 µM
DMS 273 small cell lung
  TGI: > 100 µM
RXF 393 renal
  TGI: > 100 µM
MOLT-4 leukemia
  TGI: > 100 µM
IGROV1 ovarian
  TGI: > 100 µM
HCC-2998 colon
  TGI: > 100 µM
SF-268 CNS
  TGI: > 100 µM
U251 CNS
  TGI: > 100 µM
SK-OV-3 ovarian
  TGI: > 100 µM
LXFL 529 NSCLC
  TGI: > 100 µM
OVCAR-5 ovarian
  TGI: > 100 µM
MALME-3M melanoma
  TGI: > 100 µM
SNB-19 CNS
  TGI: > 100 µM
UACC-257 melanoma
  TGI: > 100 µM
DMS 114 small cell lung
  TGI: > 100 µM
OVCAR-3 ovarian
  TGI: > 100 µM
HOP-92 NSCLC
  TGI: > 100 µM
EKVX NSCLC
  TGI: > 100 µM
HOP-18 NSCLC
  TGI: > 100 µM
KM20L2 colon
  TGI: > 100 µM
SN12C renal
  TGI: > 100 µM
LOX IMVI melanoma
  TGI: > 100 µM
UACC-62 melanoma
  TGI: > 100 µM
COLO 205 colon
  TGI: > 100 µM
786-0 renal
  TGI: > 100 µM
A549 NSCLC
  TGI: > 100 µM
SK-MEL-5 melanoma
  TGI: > 100 µM
SNB-75 CNS
  TGI: > 100 µM
CCRF-CEM leukemia
  TGI: > 100 µM
CAKI-1 renal
  TGI: > 100 µM
SF-539 CNS
  TGI: > 100 µM
RPMI-8226 leukemia
  TGI: > 100 µM
UO-31 renal
  TGI: > 100 µM
M19-MEL melanoma
  TGI: > 100 µM
HL-60(TB) leukemia
  TGI: > 100 µM
KM12 colon
  TGI: > 100 µM
OVCAR-8 ovarian
  TGI: > 100 µM
M14 melanoma
  TGI: > 100 µM
ACHN renal
  TGI: > 100 µM
SW-620 colon
  TGI: > 100 µM
TK-10 renal
  TGI: > 100 µM
K-562 leukemia
  TGI: > 100 µM
SK-MEL-2 melanoma
  TGI: > 100 µM
NCI-H460 lung
  TGI: > 100 µM
NCI-H522 lung
  TGI: > 100 µM
SF-295 CNS
  TGI: > 100 µM
SK-MEL-28 melanoma
  TGI: > 100 µM
